Data published in patent US20060292683A1, “Cross-beta structures on microbial organisms” (Crossbeta Biosciences B.V., priority 2005, published 2006).

Legend:
[1] = test system: Escherichia coli TOP10; assay: ROS production by bEnd.3 endothelial cells upon exposure to E. coli TOP10; assay type: cell-based; settings: 8.1×10^7 E. coli cells/ml with either 1.25 mg/ml IgIV, 0.8 mg/ml finger domains, 220 μM Congo red, 220 μM ThT or 1.1 μM tPA
Excerpt: (§1) Glycated proteins comprising a cross-beta structure and amyloid-β induce inflammatory responses and are believed to contribute to the pathogenesis of certain protein misfolding diseases (diabetes type II, Alzheimer's disease). In general, misfolded proteins induce cellular dysfunction with enhanced expression or activation of inflammatory signals. The effect of misfolded proteins on endothelial cell (dys)function is, for example, measured by determining the levels of reactive oxygen species or nitric oxide or tissue factor in response to misfolded proteins. Human umbilical vein endothelial cells (HUVEC) that are isolated and cultured, according to standard protocols, are used, or other endothelial cells such as the murine microvascular bEnd.3 endothelial cell line. The levels of reactive oxygen species (ROS), like, for example, nitric oxide, are monitored using fluorescent probes, such as CM-H2DCF-DA. Alternatively, cell viability is monitored by standard MTT-assay. The levels of tissue factor expression is determined using a chromogenic assay with purified factor VII, purified factor X and chromogenic substrate S-2765 (Chromogenix), using cell lysates. For example, bEnd.3 cells are seeded at 120,000 cells/well of a 96-well culture dish, and cultured overnight. […]
(§2) To assess production of reactive oxygen species by cultured mouse microvascular bEnd.3 endothelial cells (ECs), cells are seeded at 128,000 cells/well of a 96-well plate (Costar, 3904). […] For the analysis of ROS production, 10 μl of tester samples and controls are added to separate wells, and fluorescence is measured every two minutes for 70 minutes upon excitation at 488 nm with the emission wavelength set to 538 nm. […]

[2] = test system: protein and peptide aggregates with cross-β structure conformation; assay: ELISA binding to immobilized peptides with cross-β structure conformation; settings: immobilized Aβ, FP13, TTR11, LAM12 or IAPP; GST-tagged F domains
Excerpt: FIG. 2: Binding of tPA, factor XII, fibronectin and finger domains thereof to compounds with cross-β structure. Panels A-C: Full-length purified tPA (Panel A), factor XII (Panel B) and fibronectin (Panel C) bind to immobilized peptides with cross-β structure conformation, in an ELISA.
Previously, we established that tissue-type plasminogen activator specifically interacts with protein and peptide aggregates that comprise a cross-β structure conformation, a structural element found in amyloid-like polypeptide assemblies (Bouma et al., 2003; Kranenburg et al., 2002). Now, we expanded this analysis to other proteins that resemble tPA domain architecture and we separated domains of tPA. Binding of full-length tPA, factor XII and fibronectin, as well as of fibronectin type I (finger, F) domains of tPA and factor XII and F4-5 of fibronectin, to protein and peptide aggregates with cross-β structure conformation was analyzed in an ELISA. […] Binding of tPA and factor XII was established for immobilized amyloid-β(1-40) (Aβ) with amyloid-like properties, fibrin peptide FP13, that encompasses the tPA activating sequence 148KRLEVDIDIKIR160 (SEQ ID NO:——————) of the fibrin α-chain, TTR11, which is an 11 amino-acid residues peptide from transthyretin that forms cross-β structure, and LAM12, which is a 12 amino-acid residues peptide from laminin that forms cross-β structure (FIG. 2, Panels A and B). Negative controls were freshly dissolved, monomerized Aβ and non-amyloid murine islet amyloid polypeptide (mIAPP). For fibronectin, human amyloid IAPP is depicted instead of LAM12 (FIG. 2, Panel C).

[3] = test system: S. aureus Newman; assay: ROS production by bEnd.3 endothelial cells upon exposure to S. aureus Newman; assay type: cell-based, Staphylococcus aureus; settings: 1.13×10^8 S. aureus cells/ml with either 1.25 mg/ml IgIV, 0.8 mg/ml finger domains, 220 μM Congo red, 220 μM ThT or 1.1 μM tPA
Excerpt: as §1, §2

[4] = target: glycated hemoglobin (Hb-AGE) (Homo sapiens, UniProt P68871+P69905); assay: ELISA capture of glycated hemoglobin from solution by immobilized finger domains; assay type: binding; settings: immobilized finger domain; not control hemoglobin
[5] = test system: THP-1 monocytes; assay: Tissue factor up-regulation in THP-1 monocytes by misfolded proteins; assay type: cell-based; settings: 40 μg/ml glycated hemoglobin or 10 μg/ml amyloid-β(1-40); controls freshly dissolved
Experimental: For tissue factor expression analysis purposes, THP-1 cells were cultured in IMDM without gentamycin and streptomycin. At day 0, one ml of cells was seeded at 1×10^6 cells/ml in the wells of six-well culture plates. At day 1, […] PBS or with cross-beta structure binding compounds ThT, Congo red, tPA and IgIV, as described above, at a cell density of 1.8×10^7/ml (regular culturing conditions). Negative control was buffer. After six hours, the cells were pelleted by centrifugation and resuspended in 100 μl TBS (50 mM Tris-HCl, 150 mM NaCl, pH 7.0-7.3). Next, the cells were frozen and thawed for four subsequent cycles. Cells were centrifuged for ten minutes at 16,000*g and the supernatant was used for analysis of tissue factor (TF) expression. First, protein concentrations were determined using an established protein concentration assay (Bicinchoninic Acid (BCA) Protein Assay). Protein concentrations were equalized between samples with TBS to correct for variations in cell density. […] Conversion of the substrate by activated factor X at 37° C. was recorded in time for 100 minutes, by absorbance readings at 405 nm. As an additional control, factor X activity was assessed with S. aureus cells only, omitting the monocytes. […]

[6] = test system: E. coli TOP10; assay: Binding of dyes to E. coli TOP10 by visual inspection; design: species or system Escherichia coli; settings: E. coli TOP10 after incubation with Thioflavin T, Congo red, tPA and IgIV
Experimental: (§3) Staphylococcus aureus Newman, which was a kind gift of Dr. Jos van Strijp and Dr Kok van Kessel (Dept. of Microbiology, University Medical Center Utrecht, the Netherlands) was plated on a blood plate from a stock stored at −70° C., and incubated overnight at 37° C. The plate was stored at 4° C. Escherichia coli strain TOP10 (Invitrogen, 44-0301) was plated on agar with Luria broth medium from a −80° C. glycerol stock, and incubated overnight at 37° C. The plate was stored at 4° C. Overnight cultures of 5 ml in Luria broth medium were grown at 37° C. with vigorous shaking and aeration, by streaking a single colony with the tip of a pipet and transferring the tip to the medium in a 15-ml tube. The cell density in overnight cultures was determined by measuring the absorbance at 600 nm (A600=1 is equivalent with 0.8×10^9 cells/ml). Cells were pelleted by centrifugation for one minute at 16,000*g or for ten minutes at 3,000*g. Medium was discarded. One half of the cells were resuspended in PBS in 1/10 of the original medium volume (10× concentration of the cells) by pipetting and swirling. These cells were used as reference cells. […]
(§4) Binding of cross-beta structure binding compounds to E. coli TOP10 and S. aureus Newman after incubation of the bacteria with Thioflavin T, Congo red, tPA and IgIV, as described in the Materials & Methods section, was determined in two ways. […]

[7] = test system: S. aureus Newman; assay: Binding of dyes to S. aureus Newman by visual inspection; design: species or system Staphylococcus aureus; settings: S. aureus Newman after incubation with Thioflavin T, Congo red, tPA and IgIV
Experimental: as §3, §4

Chain of glycated hemoglobin (Hb-AGE) (P69905 whole entry, the tested form may be a part): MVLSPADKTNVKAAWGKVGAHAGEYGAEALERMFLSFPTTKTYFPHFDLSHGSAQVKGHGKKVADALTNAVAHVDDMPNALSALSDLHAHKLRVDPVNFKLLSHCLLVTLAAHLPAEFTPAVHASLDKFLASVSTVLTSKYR
Chain of glycated hemoglobin (Hb-AGE) (P68871 whole entry, the tested form may be a part): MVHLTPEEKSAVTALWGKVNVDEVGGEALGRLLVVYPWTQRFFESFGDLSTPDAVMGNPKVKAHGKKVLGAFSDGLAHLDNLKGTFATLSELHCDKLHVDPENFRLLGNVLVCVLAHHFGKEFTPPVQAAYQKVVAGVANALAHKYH

| Molecule | effect on ROS production by bEnd.3 ECs, co-incubation [1] | effect on ROS production by bEnd.3 ECs, co-incubation [3] | other results |
| --- | --- | --- | --- |
| tPA: tissue-type plasminogen activator (Actilyse, Boehringer-Ingelheim) | not able to reduce ROS production | does not influence S. aureus induced ROS production | binding to cross-β structure rich compounds in ELISA [2]: bind specifically |
| fibronectin F4-5 with a His-tag: recombinant fibronectin type I domains 4-5, N-terminally tagged to growth hormone and His6-tag, C-terminal His6-tag |  |  | capture of glycated hemoglobin in solution [4]: specifically capture |
| amyloid-β: amyloid-β(1-40) with cross-beta structure conformation |  |  | TF expression in THP-1 monocytes (factor X activation by lysates) [5]: induce elevated levels of TF |
| Cc1ccc2c(c1)sc(-c1ccc(N(C)C)cc1)[n+]2C.[Cl-] [Thioflavin T] | to some extent | slightly decrease ROS production | binding of dye to bacterium cells, visual inspection [6]: bound to the cells |
| Nc1c(/N=N/c2ccc(-c3ccc(/N=N/c4cc(S(=O)(=O)O)c5ccccc5c4N)cc3)cc2)cc(S(=O)(=O)O)c2ccccc12 [Congo red] | reverse ROS production | strongly inhibits ROS expression | binding of dye to bacterium cells, visual inspection [7]: intense red |
